ChEMBL document CHEMBL4342484, “Structure-Activity Relationship for the Oxadiazole Class of Antibacterials” (ACS Med Chem Lett, 2020)
Values after ≈ are worked out from the molar mass of the structure shown. Blank lines part the entries; values can stand above or below the compound they belong to.

Legend:
[1] = system: Staphylococcus aureus; experiment: Antibacterial activity against Staphylococcus aureus ATCC 29213 by broth microdilution method; assay type: functional
[2] = Hemolytic activity in human RBC relative to control; assay type: ADME, cell-based, Erythrocyte; settings: red blood cells (erythrocytes), read-out: Activity
[3] = system: HepG2; experiment: Cytotoxicity against human HepG2 cells assessed as reduction in cell viability by XTT assay; assay type: cell-based
[4] = Plasma protein binding in human at […] incubated for 2 hrs by UPLC analysis; assay type: ADME, cell-free; settings: read-out: PPB (converted)
[5] = system: Staphylococcus aureus; experiment: Antibacterial activity against Staphylococcus aureus N315 (NRS70) by broth microdilution method; assay type: functional
[6] = system: Staphylococcus aureus; experiment: Antibacterial activity against Staphylococcus aureus NRS119 by broth microdilution method; assay type: functional
[7] = system: Enterococcus faecium; experiment: Antibacterial activity against vancomycin-resistant Enterococcus faecium 106 clinical isolate by broth microdilution method; assay type: functional
[8] = system: Staphylococcus aureus; experiment: Antibacterial activity against Staphylococcus aureus ATCC 27660 by broth microdilution method; assay type: functional
[9] = system: Staphylococcus aureus; experiment: Antibacterial activity against vancomycin-resistant Staphylococcus aureus VRS1 clinical isolate by broth microdilution method; assay type: functional
[10] = system: Bacillus licheniformis; experiment: Antibacterial activity against Bacillus licheniformis ATCC 12759 by broth microdilution method; assay type: functional
[11] = system: Staphylococcus haemolyticus; experiment: Antibacterial activity against Staphylococcus haemolyticus ATCC 29970 by broth microdilution method; assay type: functional
[12] = system: Staphylococcus epidermidis; experiment: Antibacterial activity against Staphylococcus epidermidis ATCC 35547 by broth microdilution method; assay type: functional
[13] = system: Staphylococcus aureus; experiment: Antibacterial activity against vancomycin-resistant Staphylococcus aureus VRS2 clinical isolate by broth microdilution method; assay type: functional
[14] = system: Enterococcus faecium; experiment: Antibacterial activity against vancomycin-susceptible Enterococcus faecium 119-39A clinical isolate by broth microdilution method; assay type: functional
[15] = system: Staphylococcus aureus; experiment: Antibacterial activity against Staphylococcus aureus NRS100 (COL) by broth microdilution method; assay type: functional
[16] = system: Staphylococcus aureus; experiment: Antibacterial activity against Staphylococcus aureus NRS120 by broth microdilution method; assay type: functional
[17] = system: Bacillus cereus; experiment: Antibacterial activity against Bacillus cereus ATCC 13061 by broth microdilution method; assay type: functional
[18] = system: Enterococcus faecium; experiment: Antibacterial activity against Enterococcus faecium NCTC 7171 by broth microdilution method; assay type: functional
[19] = Drug level in mouse thigh infected with linezolid-resistant Staphylococcus aureus NRS119 at 40 mg/kg, po administered 1 hrs post infection and measured for 48 hrs; assay type: ADME, organism-based; settings: read-out: Drug uptake
[20] = system: Enterococcus faecalis; experiment: Antibacterial activity against vancomycin-resistant Enterococcus faecalis 99 clinical isolate by broth microdilution method; assay type: functional
[21] = system: Enterococcus faecalis; experiment: Antibacterial activity against vancomycin-susceptible Enterococcus faecalis 201 clinical isolate by broth microdilution method; assay type: functional
[22] = system: Enterococcus faecalis; experiment: Antibacterial activity against Enterococcus faecalis ATCC 29212 by broth microdilution method; assay type: functional
[23] = Drug level in mouse thigh infected with linezolid-sensitive Staphylococcus aureus NRS70 at 40 mg/kg, po administered 1 hrs post infection and measured for 48 hrs; assay type: ADME, organism-based; settings: read-out: Drug uptake

MIC [1]: 16 µg/mL (≈ 46.2 µM)
Compound: Oc1ccc(Oc2ccc(-c3noc(-c4ccc(O)cc4)n3)cc2)cc1

MIC [1]: 2 µg/mL (≈ 5.39 µM)
Compound: [N-]=[N+]=Nc1ccc(Oc2ccc(-c3noc(-c4ccc(O)cc4)n3)cc2)cc1

MIC [1]: 2 µg/mL (≈ 5.55 µM)
Compound: COc1ccc(Oc2ccc(-c3noc(-c4ccc(O)cc4)n3)cc2)cc1

MIC [1]: ≥ 128 µg/mL
Compound: N#Cc1ccc(Oc2ccc(-c3noc(-c4ccc(O)cc4)n3)cc2)cc1

MIC [1]: 4 µg/mL (≈ 8.77 µM)
Compound: Oc1ccc(-c2nc(-c3ccc(Oc4ccc(I)cc4)cc3)no2)cc1

MIC [1]: ≥ 128 µg/mL
Compound: Oc1ccc(-c2nc(-c3ccc(Oc4ccccn4)cc3)no2)cc1

MIC [1]: 64 µg/mL (≈ 182 µM)
Compound: CN1CCCC(Oc2ccc(-c3noc(-c4ccc(O)cc4)n3)cc2)C1 (stereo not given)

MIC [1]: 1 µg/mL (≈ 2.45 µM)
fraction unbound at 2 h [4]: 0.022
Compound: Clc1ccc(Oc2ccc(-c3noc(-c4n[nH]cc4Cl)n3)cc2)cc1Cl
hemolysis [2]: 1.8%
IC50 [3]: 17.2 µg/mL (≈ 42.2 µM)

MIC [1]: 2 µg/mL (≈ 5.11 µM)
fraction unbound at 2 h [4]: 0.088
Compound: Fc1ccc(Oc2ccc(-c3noc(-c4n[nH]cc4Cl)n3)cc2)cc1Cl
hemolysis [2]: 2.9%
IC50 [3]: 21 µg/mL (≈ 53.7 µM)

MIC [1]: ≥ 128 µg/mL
Compound: NC(=O)c1ccccc1Oc1ccc(-c2noc(-c3ccc(O)cc3)n2)cc1

MIC [1]: ≥ 128 µg/mL
Compound: COc1ccc2oc3ccc(-c4noc(-c5ccc(O)cc5)n4)cc3c2c1

MIC [1]: 4 µg/mL (≈ 9.77 µM)
Compound: Oc1ccc(-c2nc(-c3ccc(Oc4cccc(Br)c4)cc3)no2)cc1

Compound: CN(C)C(=O)Oc1ccc(-c2noc(-c3ccc(O)cc3)n2)cc1
MIC [1]: ≥ 128 µg/mL

Compound: Clc1c[nH]nc1-c1nc(-c2ccc(OC3CN4CCC3CC4)cc2)no1 (stereo not given)
MIC [1]: 128 µg/mL (≈ 344 µM)

MIC [1]: ≥ 128 µg/mL
Compound: CC(C)(C)OC(=O)N1CCC(Oc2ccc(-c3noc(-c4n[nH]cc4Cl)n3)cc2)CC1

MIC [1]: 2 µg/mL (≈ 4.89 µM)
Compound: Oc1ccc(-c2nc(-c3ccc(Oc4ccc(Br)cc4)cc3)no2)cc1

MIC [1]: > 128 µg/mL
Compound: FC(F)(F)Oc1ccc2oc3ccc(-c4noc(-c5n[nH]cc5Cl)n4)cc3c2c1

MIC [1]: 16 µg/mL
Compound: Cl.Oc1ccc(-c2nc(-c3ccc(OC4CCNC4)cc3)no2)cc1 (stereo not given)

MIC [1]: ≥ 128 µg/mL
Compound: Clc1c[nH]nc1-c1nc(-c2ccc(OC3CCCC3)cc2)no1

MIC [1]: 0.5 µg/mL (≈ 1.33 µM)
fraction unbound at 2 h [4]: 0.011
Compound: Fc1ccc(Oc2ccc(-c3noc(-c4n[nH]cc4Cl)n3)cc2)cc1F
hemolysis [2]: 1.3%
IC50 [3]: 17.7 µg/mL (≈ 47.2 µM)

MIC [1]: 8 µg/mL (≈ 18.9 µM)
Compound: Oc1ccc(-c2nc(-c3ccc(Oc4ccccc4CBr)cc3)no2)cc1

MIC [1]: 2 µg/mL (≈ 4.38 µM)
Compound: Oc1ccc(-c2nc(-c3ccc(Oc4ccccc4I)cc3)no2)cc1

Compound: CC(=O)NC[C@H]1CN(c2ccc(N3CCOCC3)c(F)c2)C(=O)O1 [LINEZOLID]
MIC [5]: 1 µg/mL (≈ 2.96 µM)
MIC [6]: 32 µg/mL (≈ 94.9 µM)
MIC [7]: 1 µg/mL (≈ 2.96 µM)
MIC [8]: 1 µg/mL (≈ 2.96 µM)
MIC [9]: 1 µg/mL (≈ 2.96 µM)
MIC [10]: 0.5 µg/mL (≈ 1.48 µM)
MIC [11]: 1 µg/mL (≈ 2.96 µM)
MIC [12]: 0.5 µg/mL (≈ 1.48 µM)
MIC [13]: 1 µg/mL (≈ 2.96 µM)
MIC [14]: 1 µg/mL (≈ 2.96 µM)
MIC [15]: 1 µg/mL (≈ 2.96 µM)
MIC [16]: 32 µg/mL (≈ 94.9 µM)
MIC [17]: 0.5 µg/mL (≈ 1.48 µM)
MIC [18]: 1 µg/mL (≈ 2.96 µM)

MIC [1]: 128 µg/mL (≈ 356 µM)
Compound: CN1CCCC(Oc2ccc(-c3noc(-c4n[nH]cc4Cl)n3)cc2)C1 (stereo not given)

MIC [1]: 16 µg/mL (≈ 47.4 µM)
Compound: Oc1ccc(-c2nc(-c3ccc(OC4CCNCC4)cc3)no2)cc1

MIC [1]: ≥ 128 µg/mL
Compound: CS(=O)(=O)Oc1ccc(-c2noc(-c3ccc(O)cc3)n2)cc1

MIC [1]: 16 µg/mL
Compound: Cl.NCCCOc1ccc(-c2noc(-c3ccc(O)cc3)n2)cc1

MIC [1]: ≥ 128 µg/mL
Compound: FC(F)(F)Oc1ccc(-c2noc(-c3n[nH]cc3Cl)n2)cc1

MIC [1]: 16 µg/mL (≈ 39 µM)
Compound: Cc1nc2cc(Oc3ccc(-c4noc(-c5n[nH]cc5Cl)n4)cc3)ccc2s1

MIC [1]: ≥ 128 µg/mL
Compound: Cl.NC1CCC(Oc2ccc(-c3noc(-c4ccc(O)cc4)n3)cc2)CC1 (stereo not given)

MIC [1]: ≥ 128 µg/mL
Compound: Cl.Clc1c[nH]nc1-c1nc(-c2ccc(OC3CCCNC3)cc2)no1 (stereo not given)

MIC [1]: 1 µg/mL (≈ 3.1 µM)
Compound: Oc1ccc(-c2nc(-c3ccc(OC(F)(F)F)cc3)no2)cc1
hemolysis [2]: 16%
IC50 [3]: 84.9 µg/mL (≈ 263 µM)

MIC [1]: ≥ 128 µg/mL
Compound: COc1ccc(-c2noc(-c3n[nH]cc3Cl)n2)cc1

MIC [1]: 2 µg/mL (≈ 5.39 µM)
Compound: [N-]=[N+]=Nc1ccccc1Oc1ccc(-c2noc(-c3ccc(O)cc3)n2)cc1

Compound: FC(F)(F)c1ccc(Oc2ccc(-c3noc(-c4ccc5[nH]ccc5c4)n3)cc2)cc1
MIC [1]: 2 to 4 µg/mL (≈ 4.75 to 9.49 µM)
MIC [5]: 2 µg/mL (≈ 4.75 µM)
concentration at 48 h [19]: 6000 ng/g
MIC [6]: 2 µg/mL (≈ 4.75 µM)
MIC [7]: 2 µg/mL (≈ 4.75 µM)
MIC [8]: 4 µg/mL (≈ 9.49 µM)
MIC [20]: 4 µg/mL (≈ 9.49 µM)
MIC [21]: 4 µg/mL (≈ 9.49 µM)
MIC [9]: 2 µg/mL (≈ 4.75 µM)
MIC [10]: 8 µg/mL (≈ 19 µM)
MIC [11]: 4 to 8 µg/mL (≈ 9.49 to 19 µM)
MIC [12]: 2 µg/mL (≈ 4.75 µM)
MIC [13]: 2 µg/mL (≈ 4.75 µM)
MIC [14]: 1 µg/mL (≈ 2.37 µM)
MIC [22]: 8 µg/mL (≈ 19 µM)
MIC [15]: 2 µg/mL (≈ 4.75 µM)
concentration at 48 h [23]: 7600 ng/g
MIC [16]: 2 µg/mL (≈ 4.75 µM)
MIC [17]: 16 µg/mL (≈ 38 µM)
MIC [18]: 2 µg/mL (≈ 4.75 µM)

MIC [1]: ≥ 128 µg/mL
Compound: CC(=O)N1CCC(Oc2ccc(-c3noc(-c4ccc(O)cc4)n3)cc2)CC1

Compound: CN1[C@@H]2CC[C@@H]1CC(Oc1ccc(-c3noc(-c4n[nH]cc4Cl)n3)cc1)C2 (stereo not given in full)
MIC [1]: 64 µg/mL (≈ 166 µM)
